Experimental data reported in the kinase profiling compilation of Christmann-Franck et al. (2016).
“And” between values parts separate entries of the source, which are not always exact repeats. Equal entries are not always repeated.

What was measured:
Assay in all cases: KINOMEscan competition binding
Details in all cases: compound 10.0 µM
[1] = target: AKT2 (human) (UniProt P31751)
[2] = target: AURKB (human) (UniProt Q96GD4)
[3] = target: BRSK2 (human) (UniProt Q8IWQ3)
[4] = target: CAMK4 (human) (UniProt Q16566)
[5] = target: CASK (human) (UniProt O14936)
[6] = target: CDC2L2 (human) (UniProt Q9UQ88)
[7] = target: CDK11B (human) (UniProt P21127)
[8] = target: CDK18 (human) (UniProt Q07002)
[9] = target: CDK5 (human) (UniProt Q00535)
[10] = target: CDKL2 (human) (UniProt Q92772)
[11] = target: CSNK1G1 (human) (UniProt Q9HCP0)
[12] = target: DAPK1 (human) (UniProt P53355)
[13] = target: DAPK3 (human) (UniProt O43293)
[14] = target: DMPK (human) (UniProt Q09013)
[15] = target: DYRK1A (human) (UniProt Q13627)
[16] = target: EPHB2 (human) (UniProt P29323)
[17] = target: KIT (human) (UniProt P10721)
[18] = target: LCK (human) (UniProt P06239)
[19] = target: LRRK2 (human) (UniProt Q5S007)
[20] = target: MAP3K15 (human) (UniProt Q6ZN16)
[21] = target: MAPK12 (human) (UniProt P53778)
[22] = target: MKNK1 (human) (UniProt Q9BUB5)
[23] = target: NEK9 (human) (UniProt Q8TD19)
[24] = target: NTRK3 (human) (UniProt Q16288)
[25] = target: PAK2 (human) (UniProt Q13177)
[26] = target: PDPK1 (human) (UniProt O15530)
[27] = target: PIK3CB (human) (UniProt P42338)
[28] = target: PIK3CG (human) (UniProt P48736)
[29] = target: PIP5K1C (human) (UniProt O60331)
[30] = target: PRKAA2 (human) (UniProt P54646)
[31] = target: PRKD3 (human) (UniProt O94806)
[32] = test system: RET (human), P07949 [V804L]
[33] = target: RIPK4 (human) (UniProt P57078)
[34] = target: RPS6KA3 KD1 (human) (UniProt P51812)
[35] = target: RPS6KA5 KD1 (human) (UniProt O75582)
[36] = target: RPS6KA6 KD1 (human) (UniProt Q9UK32)
[37] = target: RPS6KB1 (human) (UniProt P23443)
[38] = target: SGK110 (human) (UniProt P0C264)
[39] = target: TEK (human) (UniProt Q02763)
[40] = target: TGFBR1 (human) (UniProt P36897)

KIT (human), sequence (P10721 whole entry, looked up): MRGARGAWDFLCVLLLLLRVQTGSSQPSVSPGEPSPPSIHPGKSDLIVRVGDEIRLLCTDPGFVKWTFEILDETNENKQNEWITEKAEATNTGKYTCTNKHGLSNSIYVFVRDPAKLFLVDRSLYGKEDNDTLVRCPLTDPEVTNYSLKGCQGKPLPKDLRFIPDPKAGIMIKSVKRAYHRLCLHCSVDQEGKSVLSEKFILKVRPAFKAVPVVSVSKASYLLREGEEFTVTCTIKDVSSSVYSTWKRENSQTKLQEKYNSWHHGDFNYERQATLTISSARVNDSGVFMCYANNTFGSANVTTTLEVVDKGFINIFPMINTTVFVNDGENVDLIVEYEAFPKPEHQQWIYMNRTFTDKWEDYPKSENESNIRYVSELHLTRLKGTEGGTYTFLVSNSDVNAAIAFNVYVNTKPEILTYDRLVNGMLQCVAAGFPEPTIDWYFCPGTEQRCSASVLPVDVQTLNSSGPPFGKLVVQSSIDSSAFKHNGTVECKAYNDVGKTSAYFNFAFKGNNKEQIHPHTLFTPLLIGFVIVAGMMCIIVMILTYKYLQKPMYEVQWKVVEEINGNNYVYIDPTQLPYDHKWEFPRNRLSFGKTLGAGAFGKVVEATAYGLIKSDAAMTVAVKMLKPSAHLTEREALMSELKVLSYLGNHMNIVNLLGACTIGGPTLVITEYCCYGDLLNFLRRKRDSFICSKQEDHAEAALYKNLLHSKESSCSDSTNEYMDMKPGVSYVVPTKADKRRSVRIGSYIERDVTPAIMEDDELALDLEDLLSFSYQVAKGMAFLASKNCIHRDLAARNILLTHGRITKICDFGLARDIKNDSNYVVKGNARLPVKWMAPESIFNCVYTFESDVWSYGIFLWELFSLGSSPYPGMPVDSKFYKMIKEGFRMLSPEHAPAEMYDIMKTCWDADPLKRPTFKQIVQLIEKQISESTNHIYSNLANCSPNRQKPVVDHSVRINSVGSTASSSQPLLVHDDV
RIPK4 (human), sequence (P57078 whole entry, looked up): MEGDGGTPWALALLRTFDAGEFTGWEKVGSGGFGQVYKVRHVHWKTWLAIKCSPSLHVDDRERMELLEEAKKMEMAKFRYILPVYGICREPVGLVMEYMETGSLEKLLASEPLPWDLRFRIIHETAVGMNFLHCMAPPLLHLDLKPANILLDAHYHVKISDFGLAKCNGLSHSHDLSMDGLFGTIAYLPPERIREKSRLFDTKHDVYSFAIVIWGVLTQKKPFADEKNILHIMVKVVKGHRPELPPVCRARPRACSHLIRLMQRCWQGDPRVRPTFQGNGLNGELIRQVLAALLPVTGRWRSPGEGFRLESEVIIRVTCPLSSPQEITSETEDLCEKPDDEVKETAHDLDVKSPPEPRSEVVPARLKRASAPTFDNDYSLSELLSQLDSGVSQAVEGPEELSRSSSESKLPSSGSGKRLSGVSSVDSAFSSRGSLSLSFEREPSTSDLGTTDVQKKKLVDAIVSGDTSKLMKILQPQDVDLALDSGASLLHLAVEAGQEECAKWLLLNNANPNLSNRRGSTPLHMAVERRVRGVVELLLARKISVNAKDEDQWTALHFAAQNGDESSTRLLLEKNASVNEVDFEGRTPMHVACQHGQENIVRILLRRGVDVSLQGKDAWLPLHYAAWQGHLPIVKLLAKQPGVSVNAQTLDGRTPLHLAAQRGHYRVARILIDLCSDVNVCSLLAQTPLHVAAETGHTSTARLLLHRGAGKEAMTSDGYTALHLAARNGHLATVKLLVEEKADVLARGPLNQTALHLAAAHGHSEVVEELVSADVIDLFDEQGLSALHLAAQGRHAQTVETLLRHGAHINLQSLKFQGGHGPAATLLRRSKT
PIK3CB (human), sequence (P42338 whole entry, looked up): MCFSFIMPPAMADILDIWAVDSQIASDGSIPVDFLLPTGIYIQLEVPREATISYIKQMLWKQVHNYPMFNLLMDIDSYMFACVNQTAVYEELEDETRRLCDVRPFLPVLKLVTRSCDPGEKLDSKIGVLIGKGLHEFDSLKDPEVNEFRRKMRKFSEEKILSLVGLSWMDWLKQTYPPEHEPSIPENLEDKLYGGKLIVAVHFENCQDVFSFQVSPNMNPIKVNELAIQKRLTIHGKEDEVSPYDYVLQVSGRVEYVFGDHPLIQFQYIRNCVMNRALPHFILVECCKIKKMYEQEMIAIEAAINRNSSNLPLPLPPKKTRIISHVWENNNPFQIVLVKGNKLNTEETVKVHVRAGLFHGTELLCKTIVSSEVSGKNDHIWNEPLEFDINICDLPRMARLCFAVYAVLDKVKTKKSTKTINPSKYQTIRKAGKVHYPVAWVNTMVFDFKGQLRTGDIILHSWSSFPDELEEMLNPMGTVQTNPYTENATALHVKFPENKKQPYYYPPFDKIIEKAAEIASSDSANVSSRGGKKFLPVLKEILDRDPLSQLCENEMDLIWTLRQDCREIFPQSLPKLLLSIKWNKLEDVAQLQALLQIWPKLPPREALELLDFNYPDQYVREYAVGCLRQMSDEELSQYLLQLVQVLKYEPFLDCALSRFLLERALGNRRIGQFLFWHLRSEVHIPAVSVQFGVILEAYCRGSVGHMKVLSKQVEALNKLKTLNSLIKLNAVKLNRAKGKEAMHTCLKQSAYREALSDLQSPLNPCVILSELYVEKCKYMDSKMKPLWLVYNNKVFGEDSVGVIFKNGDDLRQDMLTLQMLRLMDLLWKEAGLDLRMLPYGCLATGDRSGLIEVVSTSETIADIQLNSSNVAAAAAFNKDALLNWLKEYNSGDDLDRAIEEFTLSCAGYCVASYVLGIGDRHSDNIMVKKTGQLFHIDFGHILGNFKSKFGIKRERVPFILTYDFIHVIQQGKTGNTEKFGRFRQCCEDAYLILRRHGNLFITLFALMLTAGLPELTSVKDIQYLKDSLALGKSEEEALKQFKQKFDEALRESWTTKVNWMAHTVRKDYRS
PIP5K1C (human), sequence (O60331 whole entry, looked up): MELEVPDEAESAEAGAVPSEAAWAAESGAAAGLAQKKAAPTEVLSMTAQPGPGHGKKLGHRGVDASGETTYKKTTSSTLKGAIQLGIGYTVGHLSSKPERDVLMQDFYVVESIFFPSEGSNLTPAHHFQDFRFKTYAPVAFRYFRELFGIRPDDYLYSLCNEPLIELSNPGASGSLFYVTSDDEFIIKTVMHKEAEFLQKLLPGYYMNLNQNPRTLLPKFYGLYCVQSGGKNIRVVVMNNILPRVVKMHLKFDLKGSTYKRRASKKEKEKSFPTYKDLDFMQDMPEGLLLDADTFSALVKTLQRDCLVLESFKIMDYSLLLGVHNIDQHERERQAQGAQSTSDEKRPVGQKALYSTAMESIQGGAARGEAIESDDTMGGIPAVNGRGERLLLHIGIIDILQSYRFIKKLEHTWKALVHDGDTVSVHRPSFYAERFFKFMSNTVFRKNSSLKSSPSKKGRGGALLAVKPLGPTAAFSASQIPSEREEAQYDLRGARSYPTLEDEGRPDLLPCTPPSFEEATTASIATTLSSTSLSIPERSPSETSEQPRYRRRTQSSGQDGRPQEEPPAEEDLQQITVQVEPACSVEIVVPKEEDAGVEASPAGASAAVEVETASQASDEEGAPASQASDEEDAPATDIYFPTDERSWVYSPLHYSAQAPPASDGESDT
DAPK3 (human), sequence (O43293 whole entry, looked up): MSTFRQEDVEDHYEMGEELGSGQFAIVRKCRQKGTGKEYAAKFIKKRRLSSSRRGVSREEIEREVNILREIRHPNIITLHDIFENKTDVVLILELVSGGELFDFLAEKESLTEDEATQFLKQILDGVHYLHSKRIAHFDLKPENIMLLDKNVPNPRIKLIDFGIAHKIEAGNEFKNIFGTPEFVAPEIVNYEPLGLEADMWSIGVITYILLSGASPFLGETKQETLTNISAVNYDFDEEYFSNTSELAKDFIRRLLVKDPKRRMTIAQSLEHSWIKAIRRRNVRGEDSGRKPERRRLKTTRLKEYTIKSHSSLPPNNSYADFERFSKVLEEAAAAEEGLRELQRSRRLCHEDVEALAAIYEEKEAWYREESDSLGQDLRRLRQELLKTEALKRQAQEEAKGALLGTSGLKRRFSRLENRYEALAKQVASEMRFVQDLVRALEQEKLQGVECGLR
PAK2 (human), sequence (Q13177 whole entry, looked up): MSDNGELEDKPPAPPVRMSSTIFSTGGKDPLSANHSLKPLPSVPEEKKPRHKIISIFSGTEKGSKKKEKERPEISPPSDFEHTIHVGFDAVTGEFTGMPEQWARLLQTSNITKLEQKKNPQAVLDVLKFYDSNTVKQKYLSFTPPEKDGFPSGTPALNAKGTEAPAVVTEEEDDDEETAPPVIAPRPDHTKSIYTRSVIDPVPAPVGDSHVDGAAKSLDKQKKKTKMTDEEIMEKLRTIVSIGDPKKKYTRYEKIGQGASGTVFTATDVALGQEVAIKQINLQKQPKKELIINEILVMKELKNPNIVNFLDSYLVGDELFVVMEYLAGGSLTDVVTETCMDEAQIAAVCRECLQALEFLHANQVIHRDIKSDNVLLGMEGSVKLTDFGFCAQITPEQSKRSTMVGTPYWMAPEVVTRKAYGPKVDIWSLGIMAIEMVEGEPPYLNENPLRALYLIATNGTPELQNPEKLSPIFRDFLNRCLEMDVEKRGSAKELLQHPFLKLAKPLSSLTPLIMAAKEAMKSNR
MKNK1 (human), sequence (Q9BUB5 whole entry, looked up): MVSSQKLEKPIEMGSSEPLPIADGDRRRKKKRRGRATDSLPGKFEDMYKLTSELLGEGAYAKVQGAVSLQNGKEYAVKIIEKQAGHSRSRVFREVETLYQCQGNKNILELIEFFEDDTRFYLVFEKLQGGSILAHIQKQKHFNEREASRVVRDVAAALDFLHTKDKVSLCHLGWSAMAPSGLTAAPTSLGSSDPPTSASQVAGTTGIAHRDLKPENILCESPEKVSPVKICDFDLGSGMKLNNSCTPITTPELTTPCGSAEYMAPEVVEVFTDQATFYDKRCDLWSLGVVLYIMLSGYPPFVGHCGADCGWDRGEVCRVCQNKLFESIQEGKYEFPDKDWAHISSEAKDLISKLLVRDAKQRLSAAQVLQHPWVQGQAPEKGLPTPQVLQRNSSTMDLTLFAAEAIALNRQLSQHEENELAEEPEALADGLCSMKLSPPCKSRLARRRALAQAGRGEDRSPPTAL

Structure (SMILES)	kinase still bound, per cent of control [1] [%]	kinase still bound, per cent of control [2] [%]	kinase still bound, per cent of control [3] [%]	kinase still bound, per cent of control [4] [%]	kinase still bound, per cent of control [5] [%]	kinase still bound, per cent of control [6] [%]	kinase still bound, per cent of control [7] [%]	kinase still bound, per cent of control [8] [%]	kinase still bound, per cent of control [9] [%]	kinase still bound, per cent of control [10] [%]	kinase still bound, per cent of control [11] [%]	kinase still bound, per cent of control [12] [%]	kinase still bound, per cent of control [13] [%]	kinase still bound, per cent of control [14] [%]	kinase still bound, per cent of control [15] [%]	kinase still bound, per cent of control [16] [%]	kinase still bound, per cent of control [17]	kinase still bound, per cent of control [18] [%]	kinase still bound, per cent of control [19] [%]	kinase still bound, per cent of control [20] [%]	other results
CNC(=O)Nc1ccc(-c2nc(N3CC4CCC(C3)O4)c3cnn(C4CCC5(CC4)OCCO5)c3n2)cc1	100	92	100	100	64	97	100	92	88	100	54	12	100	83	100	78	91% and 93%	100	82	100	kinase still bound, per cent of control [21]: 54%; kinase still bound, per cent of control [22]: 100%; kinase still bound, per cent of control [23]: 100%; kinase still bound, per cent of control [24]: 93%; kinase still bound, per cent of control [25]: 99%; kinase still bound, per cent of control [26]: 76%; kinase still bound, per cent of control [27]: 46%; kinase still bound, per cent of control [28]: 72%; kinase still bound, per cent of control [29]: 100%; kinase still bound, per cent of control [30]: 93%; kinase still bound, per cent of control [31]: 100%; kinase still bound, per cent of control [32]: 85%; kinase still bound, per cent of control [33]: 98%; kinase still bound, per cent of control [34]: 100%; kinase still bound, per cent of control [35]: 86%; kinase still bound, per cent of control [36]: 87%; kinase still bound, per cent of control [37]: 100%; kinase still bound, per cent of control [38]: 96%; kinase still bound, per cent of control [39]: 100%; kinase still bound, per cent of control [40]: 100%
N#Cc1cc(-c2ccnc(Nc3ccc(-n4cnc(-c5cccnc5)n4)cc3)n2)cc(N2CCOCC2)c1	100	57	98	100	78	25	32	43	79	2	92	60	73	85	3.1	89	0.65%	48	94	66	kinase still bound, per cent of control [21]: 80%; kinase still bound, per cent of control [22]: 100%; kinase still bound, per cent of control [23]: 63%; kinase still bound, per cent of control [24]: 100%; kinase still bound, per cent of control [25]: 72%; kinase still bound, per cent of control [26]: 100%; kinase still bound, per cent of control [27]: 100%; kinase still bound, per cent of control [28]: 0.75%; kinase still bound, per cent of control [29]: 100%; kinase still bound, per cent of control [30]: 94%; kinase still bound, per cent of control [31]: 100%; kinase still bound, per cent of control [32]: 100%; kinase still bound, per cent of control [33]: 53%; kinase still bound, per cent of control [34]: 69%; kinase still bound, per cent of control [35]: 100%; kinase still bound, per cent of control [36]: 60%; kinase still bound, per cent of control [37]: 52%; kinase still bound, per cent of control [38]: 78%; kinase still bound, per cent of control [39]: 67%; kinase still bound, per cent of control [40]: 73%
